Source: patent US20050245440A1, “Regulation of a novel colon specific retinol dehydrogenase by apc and cdx2” (University of Utah Research Foundation, priority 2002, published 2005)
Entries after “also recorded” stand apart in the source; their conditions may differ. Where two headings read alike, the source gives them in different places.

Experiments:
[1] = test system: RA response genes in HT29 cells; assay: Microarray analysis of RA response gene expression in HT29 cells; format: cell-based, human
Source text: (§1) Cell Culture and Drug Treatments.
(§2) Microarray Analysis. Slides were produced using a Generation m Microarray Spotter (Molecular Dynamics). Each microarray contained 4608 minimally redundant cDNAs spotted in duplicate on 3-aminopropyl-trimethoxy silane (Sigma) coated slides and UV crosslinked in a Stratalinker (Stratagene). The cDNA clones on the microarray were obtained from Research Genetics and Genome Systems. […] . Cultures were transferred to a multiscreen 96-well glass fiber filtration plate (Millipore) and growth medium voided. Twenty-five μl of 25 mM Tris-HCl, pH 8; 10 mM EDTA, 50 μl of 0.2N NaOH, 1% SDS and 160 μl of 0.7M potassium acetate, pH 4.8; 5.3M guanidine hydrochloride were added to each well of the glass filtration plate. Cell lysates were drawn through the glass filters under vacuum and filter-bound DNA was washed four times with 200 μl of 80% ethanol. Plasmid DNAs were eluted by centrifugation following the addition of 65 μl of distilled H2O. Samples were collected in a 96-well microtiter dish during centrifugation.
(§3) Generation of microarray probes, microarray hybridizations, and scanning Total RNA was isolated using Trizol reagent (Invitrogen) and poly-A RNA was selected using an Oligotex Kit (Qiagen). […]
(§4) Hybridizations were performed overnight at 42° C. in a humidified chamber. […] Fluorescent intensities were quantified using ArrayVision 4.0 (Imaging Research).

[2] = test system: RA response genes in HCT116 cells; assay: Microarray analysis of RA response gene expression in HCT116 cells; format: cell-based, human; settings: 5 μM 5-Aza-CdR
Source text: as §1, §2, §3, §4

RDHL [3] = assay: Northern analysis of RDHL expression in HT29 cells; format: cell-based, human; settings: 5 μM 5-Aza-CdR, cultured 6 days
Source text: (§5) Cell Culture and Drug Treatments. […] Northern blotting.

RDH5 [4] = assay: Northern analysis of RDH5 expression in HCT116 cells; format: cell-based, human; settings: 5-Aza-CdR
Source text: as §5

cdx2 [5] = assay: Northern analysis of cdx2 expression in HT29 cells; format: cell-based, human; settings: after 5-Aza-CdR
Source text: as §5

HT29 cells = settings: found previously (56); cited from earlier work
HCT116 cells = settings: following 5-Aza-CdR treatment; cited from earlier work
RDH5 [6] = assay: Northern analysis of RDH5 expression in HT29 cells; settings: after 5-Aza-CdR treatment
RDHL [7] = assay: Northern analysis of RDHL in HT29 APC-inducible cells; format: cell-based, human; settings: 100 μM ZnCl2 24 h vs water, normalized to GAPDH
Source text: as §5

RDHL [8] = assay: Northern analysis of RDHL in HT29 β-galactosidase-inducible cells; format: cell-based, human; settings: HT29 β-galactosidase-inducible cells (negative control); 100 μM ZnCl2 24 h vs water
Source text: as §5

cdx2 [9] = assay: Northern analysis of cdx2 in HT29 APC-inducible cells; format: cell-based, human; settings: 100 μM ZnCl2 24 h, data not shown
Source text: as §5

colon cancer cells = settings: cited from earlier work

Compound: Nc1ncn([C@H]2C[C@H](O)[C@@H](CO)O2)c(=O)n1 [5-Aza-CdR, 5-aza-2′-deoxycytidine]
- RA responsiveness of RA response genes ([1]; 5 μM 5-Aza-CdR 10 days, then 1 μM RA 24 h): conferred RA responsiveness
- RA response gene expression ([1]; 5 μM 5-Aza-CdR on day 0, cultured 10 days, microarray vs PBS/ethanol): enhances
- RA response gene expression [2]: not induced
- RDHL expression (RDHL [3]): expression of RDHL only after treatment with 5-Aza-CdR; also recorded: re-expressed
- RDH5 expression (RDH5 [4]): no effect
- cdx2 expression (cdx2 [5]): induction of cdx2
- differentiation and differentiation markers (HT29 cells): stimulates biological aspects of differentiation and the appearance of differentiation markers
- markers of differentiation (HCT116 cells): few markers of differentiation
- RDH5 levels (RDH5 [6]): slightly increased; also recorded: re-expressed

Compound: [Cl-].[Cl-].[Zn+2] [ZnCl2]
- fold RDHL induction (RDHL [7]): 3.2 fold
- fold RDHL induction (RDHL [8]): 1.2 fold
- cdx2 induction after re-introduction of APC (cdx2 [9]): no cdx2 induction

Compound: CC(=O)[C@H]1CC[C@H]2[C@@H]3CCC4=CC(=O)CC[C@]4(C)[C@H]3CC[C@]12C [progesterone]
- cell growth of colon cancer cells (colon cancer cells; one study (86)): failed to affect cell growth

Compound: C[C@]12CC[C@H]3[C@@H](CCC4=CC(=O)CC[C@@]43C)[C@@H]1CC[C@@H]2O [testosterone]
- cell growth of colon cancer cells (colon cancer cells; another group (87)): increased cell growth
- cell growth of colon cancer cells (colon cancer cells; one study (86)): failed to affect cell growth
